What was measured:
F. nucleatum = test: MIC, CLSI reference method; format: cell-based, Fusobacterium nucleatum; details: 24 h
Method: (§1) Cells were allowed to grow in the presence or absence (growth control) of the test agents for 24 hours. The MIC for each agent was defined as the concentration that induced a 100% growth inhibition (compared to no-drug control).

P. gingivalis = test: MIC, CLSI reference method; format: cell-based; details: 24 h
Method: as §1

S. mitis = test: MIC, CLSI reference method; format: cell-based; details: 24 h
Method: as §1

S. mutans = test: MIC, CLSI reference method; format: cell-based; details: 24 h
Method: as §1

S. oralis = test: MIC, CLSI reference method; format: cell-based; details: 24 h
Method: as §1

S. pneumonia = test: MIC, CLSI reference method; format: cell-based; details: 24 h
Method: as §1

S. pyogenes = test: MIC, CLSI reference method; format: cell-based; details: 24 h
Method: as §1

S. salivarius = test: MIC, CLSI reference method; format: cell-based; details: 24 h, 100% growth inhibition
Method: as §1

Y. enterocolitica = test: MIC, CLSI reference method; format: cell-based; details: 24 h
Method: as §1

C. albicans = test: MIC, CLSI microdilution (Candida); format: cell-based
C. krusei = test: MIC, CLSI microdilution (Candida); format: cell-based
C. tropicalis = test: MIC, CLSI microdilution (Candida); format: cell-based
C. glabrata = test: MIC, CLSI microdilution (Candida); format: cell-based
[1] = test system: Streptococcus salivarius, Candida albicans; test: in vitro filter insert-based barrier model (glycerin / xanthan gum)
Method: To identify further examples of concentrations of glycerin and xanthan gum that can form a barrier effective in preventing the passage of microorganisms, different concentrations of the gum xanthan gum and humectant glycerin were tested (5%-95% glycerin; 0.005%-0.5% xanthan gum) singly and in combination using an in vitro filter insert-based barrier model. […] Glycerin or xanthan gum or their combinations (100 μL aliquots) were overlaid on the surface of the filter to form a barrier. […] Next, 5×10^4 cells of either bacteria or fungi were applied on top of the formed barrier in the filter inserts. Next, we placed these filter inserts on the surface of agar medium (Brain Heart Infusion (BHI) medium for bacteria, Sabouraud Dextrose (SD) medium for fungi) in 6-well plates. The plates along with the filter inserts were incubated overnight for 24 hours at 37° C. The plates were monitored for the presence of bacterial or fungal growth CFUs (colony forming units) in the agar medium as well as in the filter insert.

MIC (F. nucleatum)	MIC (P. gingivalis)	MIC (S. mitis)	MIC (S. mutans)	MIC (S. oralis)	MIC (S. pneumonia)	MIC (S. pyogenes)	MIC (S. salivarius)	MIC (Y. enterocolitica)	MIC (C. albicans)	MIC (C. krusei)	MIC (C. tropicalis)	MIC (C. glabrata)	Structure (SMILES)	concentration at which a barrier was formed when tested alone [1]
19.6 μg/mL chlorhexidine	19.6 μg/mL chlorhexidine	19.6 μg/mL chlorhexidine	19.6 μg/mL chlorhexidine	19.6 μg/mL chlorhexidine	19.6 μg/mL chlorhexidine	19.6 μg/mL chlorhexidine	19.6 μg/mL chlorhexidine	19.6 μg/mL chlorhexidine	19.6 μg/mL chlorhexidine	19.6 μg/mL chlorhexidine	19.6 μg/mL chlorhexidine	19.6 μg/mL chlorhexidine	[H]/N=C(\N/C(=N/[H])NCCCCCCNC(=N)NC(=N)Nc1ccc(Cl)cc1)Nc1ccc(Cl)cc1 [Chlorhexidine, chlorhexidine gluconate]	–
–	–	–	–	–	–	–	–	–	–	–	–	–	OCC(O)CO [glycerin]	greater than or equal to 55%

— patent US10426761B2, “Method for treatment of disease caused or aggravated by microorganisms or relieving symptoms thereof” (ARMS Pharmaceutical LLC, priority 2011, dated 2019)
